Data reported in patent US12180193B2, “Accelerating fibrosarcoma protein degrading compounds and associated methods of use” (Arvinas Operations, Inc., priority 2020, dated 2024).

Tests used:
BRAF G466V = molecular target: T1, BRAF G466V (Homo sapiens, UniProt P15056, G466V); assay: Cellular assay of target protein degradation, T-Rex 293 cells stably transfected with HA-BRAF G466V (HA immunofluorescence, high content imaging); assay type: cell-based; conditions: T-Rex 293 HA-BRAF G466V; for DC50: half maximal degradation, read-out: BRaf G466V DC50; for Dmax: maximum degradation observed
T1 construct: expressed in transfected cells
T1 sequence (P15056 whole entry G466V): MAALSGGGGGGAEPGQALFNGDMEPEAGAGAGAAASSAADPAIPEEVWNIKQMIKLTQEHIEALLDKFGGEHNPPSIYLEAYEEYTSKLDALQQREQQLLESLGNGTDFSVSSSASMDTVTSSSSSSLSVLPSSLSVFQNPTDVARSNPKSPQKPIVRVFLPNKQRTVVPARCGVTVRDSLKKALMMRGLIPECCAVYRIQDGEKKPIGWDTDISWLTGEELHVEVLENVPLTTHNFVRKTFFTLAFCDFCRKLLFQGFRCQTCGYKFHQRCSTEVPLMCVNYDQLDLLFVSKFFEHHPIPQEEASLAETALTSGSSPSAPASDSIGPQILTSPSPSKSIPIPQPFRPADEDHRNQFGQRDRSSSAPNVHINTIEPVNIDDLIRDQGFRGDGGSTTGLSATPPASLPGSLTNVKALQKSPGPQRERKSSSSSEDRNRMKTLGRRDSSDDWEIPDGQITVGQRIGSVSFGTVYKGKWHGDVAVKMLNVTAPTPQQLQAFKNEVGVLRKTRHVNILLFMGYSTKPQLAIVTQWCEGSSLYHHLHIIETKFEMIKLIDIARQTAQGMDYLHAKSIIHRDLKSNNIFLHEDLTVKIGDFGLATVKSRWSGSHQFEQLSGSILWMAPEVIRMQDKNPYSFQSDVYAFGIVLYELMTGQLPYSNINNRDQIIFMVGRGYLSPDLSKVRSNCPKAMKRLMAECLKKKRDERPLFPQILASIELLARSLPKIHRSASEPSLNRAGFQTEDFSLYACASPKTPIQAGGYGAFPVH
How it was run: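 First, stably transfected T-Rex 293 cells were plated with 0.75 ng/mL doxycycline and grown for 24 hours. Next, compound (final 30 nM to 3 pM, 0.1% DMSO) was added for another 24 hours at 37° C. Finally, cells were fixed, stained for HA and imaged.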

BRAF V600E = molecular target: T2, BRAF V600E (Homo sapiens, UniProt P15056, V600E); assay: Cellular assay of target protein degradation, T-Rex 293 cells stably transfected with HA-BRAF_V600E (HA immunofluorescence, high content imaging); assay type: cell-based; conditions: T-Rex 293 HA-BRAF V600E; for DC50: half maximal degradation, read-out: BRaf V600E DC50; for Dmax: maximum degradation observed
T2 construct: expressed in transfected cells
T2 sequence (P15056 whole entry V600E): as the sequence (P15056 whole entry G466V) above, with V466G, V600E counted along it
How it was run: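 Read-out is anti-HA immunofluorescence quantified by high-content imaging, giving half-maximal degradation concentration (DC50) and maximum degradation (Dmax, percent of control). Cells expressed the construct under 1 ng/mL doxycycline and received compound (1 μM to 0.1 nM final, 0.1% DMSO) for 24 h at 37 °C.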

DC50 (BRAF G466V)	Dmax (BRAF G466V)	DC50 (BRAF V600E)	Dmax (BRAF V600E)	Compound
1 to 10 nM	> 70%	5 to 50 nM	35 to 70%	CCCS(=O)(=O)Nc1ccc(F)c(C(=O)c2c[nH]c3ncc(-c4ccc(N5CCN(CC6CCN(c7ccc8c(c7)CN([C@H]7CCC(=O)NC7=O)C8=O)CC6)CC5)cc4)cc23)c1F [Compound 243, N-{3-[5-(4-{4-[(1-{2-[(3S)-2,6-dioxopiperidin-3-yl]-1-oxo-2,3-dihydro-1H-isoindol-5-yl}piperidin-4-yl)methyl]piperazin-1-yl}phenyl)-1H-pyrrolo[2,3-b]pyridine-3-carbonyl]-2,4-difluorophenyl}propane-1-sulfonamide]
1 to 10 nM	> 70%	5 to 50 nM	35 to 70%	CCCS(=O)(=O)Nc1ccc(F)c(C(=O)c2c[nH]c3ncc(-c4ccc(N5CCN(CC6CCN(c7ccc8c(c7)CN(C7CCC(=O)NC7=O)C8=O)CC6)CC5)cc4)cc23)c1F (centres unmarked) [Compound 244, N-[3-(5-{4-[4-({1-[2-(2,6-dioxopiperidin-3-yl)-1-oxo-2,3-dihydro-1H-isoindol-5-yl]piperidin-4-yl}methyl)piperazin-1-yl]phenyl}-1H-pyrrolo[2,3-b]pyridine-3-carbonyl)-2,4-difluorophenyl]propane-1-sulfonamide]
1 to 10 nM	> 70%	5 to 50 nM	35 to 70%	CCCS(=O)(=O)Nc1ccc(F)c(C(=O)c2c[nH]c3ncc(-c4ccc(N5CCC(CN6CCN(c7ccc8c(c7)CN([C@H]7CCC(=O)NC7=O)C8=O)CC6)CC5)cc4)cc23)c1F [Compound 245, N-{3-[5-(4-{4-[(4-{2-[(3S)-2,6-dioxopiperidin-3-yl]-1-oxo-2,3-dihydro-1H-isoindol-5-yl}piperazin-1-yl)methyl]piperidin-1-yl}phenyl)-1H-pyrrolo[2,3-b]pyridine-3-carbonyl]-2,4-difluorophenyl}propane-1-sulfonamide]
1 to 10 nM	> 70%	5 to 50 nM	35 to 70%	O=C1CCC(N2Cc3cc(N4CC5(CN(CC6CCN(c7ccc(-c8cnc9[nH]cc(C(=O)c%10c(F)ccc(NS(=O)(=O)N%11CCC(F)(F)C%11)c%10F)c9c8)cc7)CC6)C5)C4)ccc3C2=O)C(=O)N1 (centres unmarked) [Compound 246, N-[3-(5-{4-[4-({6-[2-(2,6-dioxopiperidin-3-yl)-1-oxo-2,3-dihydro-1H-isoindol-5-yl]-2,6-diazaspiro[3.3]heptan-2-yl}methyl)piperidin-1-yl]phenyl}-1H-pyrrolo [2,3-b]pyridine-3-carbonyl)-2,4-difluorophenyl]-3,3-difluoropyrrolidine-1-sulfonamide]
1 to 10 nM	> 70%	5 to 50 nM	< 35%	COc1cc(N2CCC(CN3CC4(C3)CN(c3ccc(-c5cnc6[nH]cc(C(=O)c7c(F)ccc(NS(=O)(=O)N8CCC(F)(F)C8)c7F)c6c5)cc3)C4)CC2)cc2c1C(=O)N(C1CCC(=O)NC1=O)C2 (centres unmarked) [Compound 247, N-[3-(5-{4-[6-({1-[2-(2,6-dioxopiperidin-3-yl)-7-methoxy-1-oxo-2,3-dihydro-1H-isoindol-5-yl]piperidin-4-yl}methyl)-2,6-diazaspiro[3.3]heptan-2-yl]phenyl}-1H-pyrrolo[2,3-b]pyridine-3-carbonyl)-2,4-difluorophenyl]-3,3-difluoropyrrolidine-1-sulfonamide]
1 to 10 nM	> 70%	5 to 50 nM	35 to 70%	O=C1CCC(N2Cc3cc(CCCN4CC5(C4)CN(c4ccc(-c6cnc7[nH]cc(C(=O)c8c(F)ccc(NS(=O)(=O)N9CCC(F)(F)C9)c8F)c7c6)cc4)C5)ccc3C2=O)C(=O)N1 (centres unmarked) [Compound 248, N-(3-{5-[4-(6-{3-[2-(2,6-dioxopiperidin-3-yl)-1-oxo-2,3-dihydro-1H-isoindol-5-yl]propyl}-2,6-diazaspiro[3.3]heptan-2-yl)phenyl]-1H-pyrrolo[2,3-b]pyridine-3-carbonyl}-2,4-difluorophenyl)-3,3-difluoropyrrolidine-1-sulfonamide]
1 to 10 nM	> 70%	5 to 50 nM	35 to 70%	COc1cc(N2CC3(CN(CC4CCN(c5ccc(-c6cnc7[nH]cc(C(=O)c8c(F)ccc(NS(=O)(=O)N9CC[C@@H](F)C9)c8F)c7c6)cc5)CC4)C3)C2)cc2c1C(=O)N([C@H]1CCC(=O)NC1=O)C2 [Compound 249, (3R)-N-{3-[5-(4-{4-[(6-{2-[(3S)-2,6-dioxopiperidin-3-yl]-7-methoxy-1-oxo-2,3-dihydro-1H-isoindol-5-yl}-2,6-diazaspiro[3.3]heptan-2-yl)methyl]piperidin-1-yl}phenyl)-1H-pyrrolo [2,3-b]pyridine-3-carbonyl]-2,4-difluorophenyl}-3-fluoropyrrolidine-1-sulfonamide]
1 to 10 nM	> 70%	5 to 50 nM	< 35%	COc1cc(N2CC3(CN(CC4CCN(c5ccc(-c6cnc7[nH]cc(C(=O)c8c(F)ccc(NS(=O)(=O)N9CC[C@@H](F)C9)c8F)c7c6)cc5)CC4)C3)C2)cc2c1C(=O)N([C@@H]1CCC(=O)NC1=O)C2 [Compound 250, (3R)-N-{3-[5-(4-{4-[(6-{2-[(3R)-2,6-dioxopiperidin-3-yl]-7-methoxy-1-oxo-2,3-dihydro-1H-isoindol-5-yl}-2,6-diazaspiro[3.3]heptan-2-yl)methyl]piperidin-1-yl}phenyl)-1H-pyrrolo [2,3-b]pyridine-3-carbonyl]-2,4-difluorophenyl}-3-fluoropyrrolidine-1-sulfonamide]

The remaining lines, values behind:

Compound	DC50 (BRAF G466V)	Dmax (BRAF G466V)	DC50 (BRAF V600E)	Dmax (BRAF V600E)
CCCS(=O)(=O)Nc1ccc(F)c(C(=O)c2c[nH]c3ncc(-c4ccc(N5CC6(CN(CC7CCN(c8cc9c(c(OC)c8)C(=O)N([C@H]8CCC(=O)NC8=O)C9)CC7)C6)C5)cc4)cc23)c1F [Compound 237, N-{3-[5-(4-{6-[(1-{2-[(3S)-2,6-dioxopiperidin-3-yl]-7-methoxy-1-oxo-2,3-dihydro-1H-isoindol-5-yl}piperidin-4-yl)methyl]-2,6-diazaspiro[3.3]heptan-2-yl}phenyl)-1H-pyrrolo[2,3-b]pyridine-3-carbonyl]-2,4-difluorophenyl}propane-1-sulfonamide]	< 1 nM	> 70%	5 to 50 nM	35 to 70%
CCCS(=O)(=O)Nc1ccc(F)c(C(=O)c2c[nH]c3ncc(-c4ccc(N5CC6(CN(CC7CCN(c8cc9c(c(OC)c8)C(=O)N([C@@H]8CCC(=O)NC8=O)C9)CC7)C6)C5)cc4)cc23)c1F [Compound 238, N-{3-[5-(4-{6-[(1-{2-[(3R)-2,6-dioxopiperidin-3-yl]-7-methoxy-1-oxo-2,3-dihydro-1H-isoindol-5-yl}piperidin-4-yl)methyl]-2,6-diazaspiro[3.3]heptan-2-yl}phenyl)-1H-pyrrolo[2,3-b]pyridine-3-carbonyl]-2,4-difluorophenyl}propane-1-sulfonamide]	1 to 10 nM	> 70%	5 to 50 nM	35 to 70%
C[C@H]1C[C@@H](CN2CCC(c3ccc4c(c3)CN([C@H]3CCC(=O)NC3=O)C4=O)CC2)CCN1c1ccc(-c2cnc3[nH]cc(C(=O)c4c(F)ccc(NS(=O)(=O)N5CC[C@@H](F)C5)c4F)c3c2)cc1 [Compound 239, (3R)-N-[3-(5-{4-[(2S,4S)-4-[(4-{2-[(3S)-2,6-dioxopiperidin-3-yl]-1-oxo-2,3-dihydro-1H-isoindol-5-yl}piperidin-1-yl)methyl]-2-methylpiperidin-1-yl]phenyl}-1H-pyrrolo[2,3-b]pyridine-3-carbonyl)-2,4-difluorophenyl]-3-fluoropyrrolidine-1-sulfonamide]	1 to 10 nM	> 70%	5 to 50 nM	35 to 70%
C[C@H]1C[C@@H](CN2CCC(c3ccc4c(c3)CN([C@@H]3CCC(=O)NC3=O)C4=O)CC2)CCN1c1ccc(-c2cnc3[nH]cc(C(=O)c4c(F)ccc(NS(=O)(=O)N5CC[C@@H](F)C5)c4F)c3c2)cc1 [Compound 240, (3R)-N-[3-(5-{4-[(2S,4S)-4-[(4-{2-[(3R)-2,6-dioxopiperidin-3-yl]-1-oxo-2,3-dihydro-1H-isoindol-5-yl}piperidin-1-yl)methyl]-2-methylpiperidin-1-yl]phenyl}-1H-pyrrolo[2,3-b]pyridine-3-carbonyl)-2,4-difluorophenyl]-3-fluoropyrrolidine-1-sulfonamide]	1 to 10 nM	> 70%	5 to 50 nM	35 to 70%
C[C@@H]1C[C@H](CN2CCC(c3ccc4c(c3)CN([C@H]3CCC(=O)NC3=O)C4=O)CC2)CCN1c1ccc(-c2cnc3[nH]cc(C(=O)c4c(F)ccc(NS(=O)(=O)N5CC[C@@H](F)C5)c4F)c3c2)cc1 [Compound 241, (3R)-N-[3-(5-{4-[(2R,4R)-4-[(4-{2-[(3S)-2,6-dioxopiperidin-3-yl]-1-oxo-2,3-dihydro-1H-isoindol-5-yl}piperidin-1-yl)methyl]-2-methylpiperidin-1-yl]phenyl}-1H-pyrrolo[2,3-b]pyridine-3-carbonyl)-2,4-difluorophenyl]-3-fluoropyrrolidine-1-sulfonamide]	1 to 10 nM	> 70%	5 to 50 nM	35 to 70%
C[C@@H]1C[C@H](CN2CCC(c3ccc4c(c3)CN([C@@H]3CCC(=O)NC3=O)C4=O)CC2)CCN1c1ccc(-c2cnc3[nH]cc(C(=O)c4c(F)ccc(NS(=O)(=O)N5CC[C@@H](F)C5)c4F)c3c2)cc1 [Compound 242, (3R)-N-[3-(5-{4-[(2R,4R)-4-[(4-{2-[(3R)-2,6-dioxopiperidin-3-yl]-1-oxo-2,3-dihydro-1H-isoindol-5-yl}piperidin-1-yl)methyl]-2-methylpiperidin-1-yl]phenyl}-1H-pyrrolo[2,3-b]pyridine-3-carbonyl)-2,4-difluorophenyl]-3-fluoropyrrolidine-1-sulfonamide]	1 to 10 nM	> 70%	5 to 50 nM	35 to 70%
